Assays:
rats with MCAO [1] = assay: Cerebral infarct volume by MRI in transient MCAO model; assay type: in vivo, Wistar rats; details: for Infarct volume at 24 h: 24 h after MCAO, before treatment (group baseline); for Infarct volume by day 28: day 28 after MCAO, compound 1 125 mg kg^−1, piracetam 300 mg kg^−1 daily from 24 h to day 5, p = 0.17
Method: A MCAO animal model was used to characterize the effects of compound 1 on the development and resolution of stroke. At the baseline, we performed the MRI and hole-board test before MCAO surgery. Once animals recovered after the surgery, we stratified them based on their background psycho-emotional status and performed a control MRI to access whether the occlusion was sufficient or not. […] From 24 h to day 7, the neurological status was assessed daily according to the neurological scale (mNSS). By the end of day 7, animals underwent MRI. In addition, MRI was performed on days 14 and 28 (Shceme 3)The hole-board test was repeated on days 10 and 24. The degree of motor function impairment, the deficit of exploratory behavior, and the recovery process were assessed in the beam walking test (BWT), which was performed twice on days 12 and 14. An open field test was carried out on days 16 and 26.
Before conducting the experiments, the animals underwent the HBT and were allocated to groups based on their behavior score and weight. Kullback–Leibler divergence method for allocation based on two numerical parameters was used for allocation. We used a sum score for behavior tests and weight. Subsequently, two experimental series were performed. In the first series, rat behavior without stroke modeling after injection of compound 1 (experimental group, n = 10) or saline (control group, n = 10) was evaluated (Scheme 3a). […] Compound 1 was injected at a dose of 125 mg kg^−1 and an injection volume of 0.5 mL. […] For the experiments, the following predetermined exclusion criteria were used: (1) incomplete MCAO indicated by an incomplete lesion on magnetic resonance imaging (MRI) after 24 h [n = 4]and (2) post-operative weight loss of > 20% and severe animal condition within the first post-stroke 48 h [n = 3]. Animals reached humane endpoints based on the absence of nociceptive reflex withdrawal responses, hypothermia, and heart rate reduction to 100–150 beats min^−1. As steroid treatment could have influenced the experiment, rats were humanely euthanized according to the ethical protocol. The experiment design is presented in Scheme 3b.
The rats were anesthetized initially using 3% isoflurane and maintained with a mixture of 2–2.5% isoflurane and 97.5–98% atmospheric air (EZ-7000 Classic System, E-Z Anesthesia® Systems). […]
During the procedure, the rats were maintained under inhalation anesthesia as mentioned above. […] The volume of the hyperintensity ischemic stroke area was calculated by summing the areas of adjacent cross-sections using the following formula: Volume = (S1 + … + Sn) × (h + d), where S1, …, Sn are areas measured in n slices, h is the slice thickness, and d is the interval between slices.

rats with MCAO [2] = assay: Survival within 28 days after MCAO (Kaplan-Meier, log-rank); assay type: in vivo, Wistar rats; details: 28 days after first administration, log-rank test
Method: All statistical analyses were performed using the IBM® SPSS® Statistics Version 23.0 and R software Version 3.3.2 (R Foundation for Statistical Computing, Vienna, Austria). For normally distributed quantitative continuous variables, the mean and standard deviation (SD) values were calculated and presented as descriptive statistics. For ordinal variables, median and 25- and 75-percentiles were calculated. For qualitative variables, the absolute count and percentage value for each category were calculated. For quantitative variables, the normality of distribution was verified using frequency histograms and Kolmogorov–Smirnov test. A two-tailed p-value < 0.05 was considered statistically significant. To compare changes in structure displacement, lesion size, and neurological scale, a general linear repeated measures model with a group as a fixed factor was used. One-way multivariate analysis of variance was used in the analysis of behavior. Experimental groups were designed to have an equal sample size (8 vs. 8 rats) based on sample size calculations for the independent sample t-test using Statistica 10 software (type I error 0.05, type II error 0.20). Animal survival was estimated by the Kaplan–Meier method using the log-rank test.

[3] = Reported BBB permeability; details: compound 1, no reference given; own data
Text: Table 5 Predicted permeability of ampakines in silico and in the blood–brain barrier (BBB). | column: Literature Report of BBB Permeability

[4] = tested on: patients with cerebral ischemia-induced short-term memory/cognitive deterioration; details: after piracetam; cited from earlier work

SMILES	Infarct volume at 24 h (rats with MCAO [1])	Infarct volume by day 28 (rats with MCAO [1])	Survival of animals vs other groups (rats with MCAO [2])	BBB Permeability (column Literature Report of BBB Permeability) [3]	Patients who improved their memory and cognitive functions [4]
O=C(CN1CC(c2ccccc2)CC1=O)NCCS(=O)(=O)[O-].[K+] (centres unmarked) [Compound 1, potassium 2-[2-(2-oxo-4-phenylpyrrolidin-1-yl)acetamido]ethane-1-sulfonate]	133.6 ± 24.1 mm^3	91.2 ± 18.9 mm^3	no significant differences	Low	–
NC(=O)CN1CCCC1=O [Piracetam, reference compound]	128.5 ± 15.5 mm^3	86.0 ± 13.5 mm^3	no significant differences	–	around 25%
